The text below walks through data of PMC10175918 (Communications Biology, 2023).

Like-named read-outs stand apart in the source and are kept apart here.

What all share (assay): TGFα-shedding assay-based GPCR screening with chimeric Gα subunit proteins
Assay type in all cases: cell-based

In test [1] the target is T1, 348 GPCRs (Homo sapiens, UniProt P34969).
T1 construct: expressed in transfected cells; host or cells: HEK293A
The following applies: 10µM, Favipiravir 100μM.

Test [2] addresses T2, 348 GPCRs (Homo sapiens, UniProt Q9HB89).
T2 construct: expressed in transfected cells; host or cells: HEK293A
T2 sequence (Q9HB89 1-426): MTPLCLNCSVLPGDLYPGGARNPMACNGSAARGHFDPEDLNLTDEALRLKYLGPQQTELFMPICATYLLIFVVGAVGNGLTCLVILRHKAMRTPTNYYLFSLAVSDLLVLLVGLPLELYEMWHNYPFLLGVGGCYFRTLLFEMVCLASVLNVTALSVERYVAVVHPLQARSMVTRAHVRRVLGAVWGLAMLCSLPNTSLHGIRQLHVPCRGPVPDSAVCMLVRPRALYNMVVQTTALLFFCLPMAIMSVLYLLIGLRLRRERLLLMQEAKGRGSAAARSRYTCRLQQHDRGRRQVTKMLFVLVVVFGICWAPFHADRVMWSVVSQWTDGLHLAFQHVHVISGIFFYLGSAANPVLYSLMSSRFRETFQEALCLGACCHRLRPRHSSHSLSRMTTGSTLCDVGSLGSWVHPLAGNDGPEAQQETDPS
To be noted: 10µM, Favipiravir 100μM.

Test [3] has as its target T3, 348 GPCRs (Homo sapiens, UniProt Q7Z602).
T3 construct: expressed in transfected cells; host or cells: HEK293A
To be noted: 10µM, Favipiravir 100μM.

Test [4] deals with T4, 348 GPCRs (Homo sapiens, UniProt P29274).
T4 construct: expressed in transfected cells; host or cells: HEK293A
To be noted: ADORA2A (adenosine A2a receptor); 10µM, Favipiravir 100μM.

Test [5] concerns the target T5, 348 GPCRs (Homo sapiens, UniProt P29371).
T5 construct: expressed in transfected cells; host or cells: HEK293A
T5 sequence (P29371 1-465): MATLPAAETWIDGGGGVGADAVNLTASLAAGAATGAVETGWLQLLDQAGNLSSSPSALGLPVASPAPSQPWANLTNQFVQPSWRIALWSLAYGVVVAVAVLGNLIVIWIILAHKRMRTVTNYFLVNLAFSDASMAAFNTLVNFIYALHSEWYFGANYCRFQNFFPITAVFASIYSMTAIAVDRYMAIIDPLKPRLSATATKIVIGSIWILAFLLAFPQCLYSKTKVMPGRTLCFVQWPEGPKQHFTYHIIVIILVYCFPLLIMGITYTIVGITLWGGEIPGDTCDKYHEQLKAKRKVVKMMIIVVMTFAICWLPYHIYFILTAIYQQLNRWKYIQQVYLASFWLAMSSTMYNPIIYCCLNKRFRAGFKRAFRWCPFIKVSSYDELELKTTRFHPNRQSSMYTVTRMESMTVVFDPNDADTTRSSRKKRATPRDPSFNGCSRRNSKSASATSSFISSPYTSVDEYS
To be noted: 10µM, Favipiravir 100μM.

In test [6] the target is T6, 348 GPCRs (Homo sapiens, UniProt Q9BZJ8).
T6 construct: expressed in transfected cells; host or cells: HEK293A

For test [7], the target named is T7, 348 GPCRs (Homo sapiens, UniProt P11229).
T7 sequence (P11229 1-460): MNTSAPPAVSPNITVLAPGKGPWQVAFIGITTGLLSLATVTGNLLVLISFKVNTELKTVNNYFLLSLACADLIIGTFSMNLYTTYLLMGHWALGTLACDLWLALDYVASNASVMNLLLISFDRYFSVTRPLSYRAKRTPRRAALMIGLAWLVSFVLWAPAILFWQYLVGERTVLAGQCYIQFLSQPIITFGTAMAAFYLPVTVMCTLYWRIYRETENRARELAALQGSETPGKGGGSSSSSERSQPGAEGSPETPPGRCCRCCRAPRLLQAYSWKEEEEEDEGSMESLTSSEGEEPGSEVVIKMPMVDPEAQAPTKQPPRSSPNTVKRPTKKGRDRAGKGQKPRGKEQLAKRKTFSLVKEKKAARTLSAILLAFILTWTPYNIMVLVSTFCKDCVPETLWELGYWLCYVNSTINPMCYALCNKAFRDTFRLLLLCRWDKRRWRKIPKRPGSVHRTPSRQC

The target in test [8] is 348 GPCRs (Homo sapiens, UniProt P35462). To be noted: 10µM, Favipiravir 100μM.
Test [9] addresses 348 GPCRs (Homo sapiens, UniProt O43193). The following applies: 10µM, Favipiravir 100μM.
Test [10] concerns the target T8, 348 GPCRs (Homo sapiens, UniProt Q9Y5N1).
T8 construct: expressed in transfected cells; host or cells: HEK293A
The following applies: 10µM, Favipiravir 100μM.

Test [11] deals with 348 GPCRs (Homo sapiens, UniProt P14416). The following applies: 10µM, Favipiravir 100μM.
The target of test [12] is T9, 348 GPCRs (Homo sapiens, UniProt P22888).
T9 construct: expressed in transfected cells; host or cells: HEK293A
The following applies: 10µM, Favipiravir 100μM.

Where [13] appears, read: 5-HT7 (5-hydroxytryptamine receptor 7), read-out: % GPCR activation compared to TPA.
Setting [14] is: NMUR1 (neuromedin U receptor 1), read-out: % GPCR activation compared to TPA.
[15] abbreviates: GPR141 (G Protein-Coupled Receptor 141), read-out: % GPCR activation compared to TPA.
Where [16] appears, read: NK3 (tachykinin receptor 3), read-out: % GPCR activation compared to TPA.
The mark [17] stands for this setting: GPCR GPR61 (G protein-coupled receptor 61), read-out: % GPCR activation compared to TPA.
Setting [18] is: GPCR M1 (Muscarinic acetylcholine receptor M1), read-out: % GPCR activation compared to TPA.
Setting [19] is: D3 (dopamine receptor D3), read-out: % GPCR activation compared to TPA.
Where [20] appears, read: MLNR (motilin receptor), read-out: % GPCR activation compared to TPA.
The mark [21] stands for this setting: H3 (histamine receptor H3), read-out: % GPCR activation compared to TPA.
The mark [22] stands for this setting: D2 (dopamine receptor D2), read-out: % GPCR activation compared to TPA.
The mark [23] stands for this setting: LHCGR (luteinizing hormone/choriogonadotropin receptor), read-out: % GPCR activation compared to TPA.
Where [24] appears, read: read-out: % GPCR activation compared to TPA, 5-HT7 (5-hydroxytryptamine receptor 7).
The mark [25] stands for this setting: read-out: % GPCR activation compared to TPA, NMUR1 (neuromedin U receptor 1).
Setting [26] is: read-out: % GPCR activation compared to TPA, GPR141 (G Protein-Coupled Receptor 141).
The mark [27] stands for this setting: read-out: % GPCR activation compared to TPA, NK3 (tachykinin receptor 3).
Setting [28] is: read-out: % GPCR activation compared to TPA, GPCR GPR61 (G protein-coupled receptor 61).
The mark [29] stands for this setting: read-out: % GPCR activation compared to TPA, GPCR M1 (Muscarinic acetylcholine receptor M1).
[30] abbreviates: read-out: % GPCR activation compared to TPA, D3 (dopamine receptor D3).
Where [31] appears, read: read-out: % GPCR activation compared to TPA, MLNR (motilin receptor).
[32] abbreviates: read-out: % GPCR activation compared to TPA, H3 (histamine receptor H3).
The mark [33] stands for this setting: read-out: % GPCR activation compared to TPA, D2 (dopamine receptor D2).
[34] abbreviates: read-out: % GPCR activation compared to TPA, LHCGR (luteinizing hormone/choriogonadotropin receptor).

T9 sequence (P22888 27-699): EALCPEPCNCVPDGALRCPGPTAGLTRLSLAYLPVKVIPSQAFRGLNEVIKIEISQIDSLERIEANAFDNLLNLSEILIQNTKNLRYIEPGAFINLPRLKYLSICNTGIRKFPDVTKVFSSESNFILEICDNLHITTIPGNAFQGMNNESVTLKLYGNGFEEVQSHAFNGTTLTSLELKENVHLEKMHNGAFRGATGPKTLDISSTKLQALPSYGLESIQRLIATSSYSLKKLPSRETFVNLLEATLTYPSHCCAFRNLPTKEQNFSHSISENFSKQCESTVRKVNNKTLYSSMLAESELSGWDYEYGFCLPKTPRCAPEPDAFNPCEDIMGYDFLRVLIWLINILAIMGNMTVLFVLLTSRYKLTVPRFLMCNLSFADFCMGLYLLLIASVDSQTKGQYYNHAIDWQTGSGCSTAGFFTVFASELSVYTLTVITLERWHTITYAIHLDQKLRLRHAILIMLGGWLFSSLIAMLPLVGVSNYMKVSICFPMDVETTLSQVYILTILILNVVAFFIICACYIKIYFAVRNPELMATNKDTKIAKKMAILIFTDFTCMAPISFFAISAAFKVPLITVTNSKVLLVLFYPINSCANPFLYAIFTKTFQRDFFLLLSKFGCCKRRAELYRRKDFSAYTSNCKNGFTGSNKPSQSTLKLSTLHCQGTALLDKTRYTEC
348 GPCRs (Homo sapiens, UniProt P14416), sequence (P14416 whole entry): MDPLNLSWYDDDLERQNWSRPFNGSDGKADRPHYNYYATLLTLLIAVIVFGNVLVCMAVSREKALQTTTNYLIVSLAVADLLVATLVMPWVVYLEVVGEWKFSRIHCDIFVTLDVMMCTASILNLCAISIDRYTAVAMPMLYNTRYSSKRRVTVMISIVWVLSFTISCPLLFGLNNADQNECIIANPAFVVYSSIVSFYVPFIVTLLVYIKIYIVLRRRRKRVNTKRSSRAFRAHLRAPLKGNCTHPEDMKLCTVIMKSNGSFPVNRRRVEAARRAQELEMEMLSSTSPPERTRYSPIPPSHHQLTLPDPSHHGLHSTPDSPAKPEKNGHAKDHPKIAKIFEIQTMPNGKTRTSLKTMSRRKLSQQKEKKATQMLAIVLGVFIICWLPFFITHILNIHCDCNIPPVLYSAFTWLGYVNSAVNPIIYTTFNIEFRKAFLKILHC
348 GPCRs (Homo sapiens, UniProt O43193), sequence (O43193 whole entry): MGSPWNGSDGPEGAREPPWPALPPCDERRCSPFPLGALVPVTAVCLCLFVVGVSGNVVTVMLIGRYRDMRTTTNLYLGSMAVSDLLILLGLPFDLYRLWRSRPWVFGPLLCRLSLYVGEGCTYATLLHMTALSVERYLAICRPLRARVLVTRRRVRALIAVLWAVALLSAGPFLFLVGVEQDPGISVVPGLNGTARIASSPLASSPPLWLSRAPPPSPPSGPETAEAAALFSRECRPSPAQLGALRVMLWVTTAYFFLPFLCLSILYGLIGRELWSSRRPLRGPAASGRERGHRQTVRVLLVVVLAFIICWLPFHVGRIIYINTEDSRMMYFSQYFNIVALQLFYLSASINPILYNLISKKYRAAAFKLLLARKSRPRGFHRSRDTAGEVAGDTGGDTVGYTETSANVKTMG
T1 sequence (P34969 whole entry): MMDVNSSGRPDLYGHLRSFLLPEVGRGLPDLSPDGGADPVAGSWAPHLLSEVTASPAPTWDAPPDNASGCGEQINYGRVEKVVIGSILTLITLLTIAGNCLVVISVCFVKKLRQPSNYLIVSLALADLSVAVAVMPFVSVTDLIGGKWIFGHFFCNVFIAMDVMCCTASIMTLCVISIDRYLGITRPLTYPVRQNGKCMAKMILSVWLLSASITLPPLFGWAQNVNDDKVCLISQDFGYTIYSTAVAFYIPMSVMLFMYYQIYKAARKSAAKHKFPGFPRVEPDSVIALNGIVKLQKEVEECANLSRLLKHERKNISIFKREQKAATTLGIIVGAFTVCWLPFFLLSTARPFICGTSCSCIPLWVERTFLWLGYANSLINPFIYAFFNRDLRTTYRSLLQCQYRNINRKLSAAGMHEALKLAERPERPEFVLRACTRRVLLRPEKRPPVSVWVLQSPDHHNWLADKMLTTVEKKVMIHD
348 GPCRs (Homo sapiens, UniProt P35462), sequence (P35462 whole entry): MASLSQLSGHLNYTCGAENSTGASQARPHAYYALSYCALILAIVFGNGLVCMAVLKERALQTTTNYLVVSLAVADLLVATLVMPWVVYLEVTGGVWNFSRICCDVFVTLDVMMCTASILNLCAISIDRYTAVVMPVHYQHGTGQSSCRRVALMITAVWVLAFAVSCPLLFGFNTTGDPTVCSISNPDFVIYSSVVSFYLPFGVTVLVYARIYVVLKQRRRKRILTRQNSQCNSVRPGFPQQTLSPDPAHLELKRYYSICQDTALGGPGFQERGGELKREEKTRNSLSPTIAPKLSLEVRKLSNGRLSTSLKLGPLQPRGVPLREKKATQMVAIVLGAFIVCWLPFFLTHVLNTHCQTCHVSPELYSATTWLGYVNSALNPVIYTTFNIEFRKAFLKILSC
T3 sequence (Q7Z602 whole entry): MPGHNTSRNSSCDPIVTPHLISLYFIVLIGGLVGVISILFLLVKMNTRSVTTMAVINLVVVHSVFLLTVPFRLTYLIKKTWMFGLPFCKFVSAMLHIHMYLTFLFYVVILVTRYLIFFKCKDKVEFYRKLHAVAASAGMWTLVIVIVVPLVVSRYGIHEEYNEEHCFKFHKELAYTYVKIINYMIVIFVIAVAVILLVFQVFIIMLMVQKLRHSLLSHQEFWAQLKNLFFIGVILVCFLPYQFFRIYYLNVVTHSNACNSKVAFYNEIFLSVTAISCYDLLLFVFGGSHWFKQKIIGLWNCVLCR
T4 sequence (P29274 whole entry): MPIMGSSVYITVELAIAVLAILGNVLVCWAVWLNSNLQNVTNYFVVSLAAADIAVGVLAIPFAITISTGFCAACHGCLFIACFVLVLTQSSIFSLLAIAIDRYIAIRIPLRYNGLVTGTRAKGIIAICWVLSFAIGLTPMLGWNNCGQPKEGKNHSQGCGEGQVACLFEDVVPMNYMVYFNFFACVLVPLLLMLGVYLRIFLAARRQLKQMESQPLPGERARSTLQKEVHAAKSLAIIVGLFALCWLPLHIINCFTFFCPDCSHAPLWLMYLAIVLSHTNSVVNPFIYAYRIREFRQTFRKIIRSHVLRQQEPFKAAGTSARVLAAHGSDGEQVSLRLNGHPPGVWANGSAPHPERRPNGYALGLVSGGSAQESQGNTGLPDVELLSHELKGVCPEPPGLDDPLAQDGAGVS
T6 sequence (Q9BZJ8 whole entry): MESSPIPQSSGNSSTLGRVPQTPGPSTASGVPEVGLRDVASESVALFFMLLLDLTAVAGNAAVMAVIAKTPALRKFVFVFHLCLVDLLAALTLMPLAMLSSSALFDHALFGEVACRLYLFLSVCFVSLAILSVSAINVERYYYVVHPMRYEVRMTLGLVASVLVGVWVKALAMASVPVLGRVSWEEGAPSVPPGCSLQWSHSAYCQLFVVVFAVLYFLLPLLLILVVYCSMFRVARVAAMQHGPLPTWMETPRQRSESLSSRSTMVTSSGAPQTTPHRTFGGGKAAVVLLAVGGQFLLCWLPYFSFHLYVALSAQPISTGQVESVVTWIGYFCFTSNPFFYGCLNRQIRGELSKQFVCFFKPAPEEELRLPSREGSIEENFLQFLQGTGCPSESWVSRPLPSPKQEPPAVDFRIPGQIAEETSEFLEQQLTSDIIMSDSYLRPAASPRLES
T8 sequence (Q9Y5N1 whole entry): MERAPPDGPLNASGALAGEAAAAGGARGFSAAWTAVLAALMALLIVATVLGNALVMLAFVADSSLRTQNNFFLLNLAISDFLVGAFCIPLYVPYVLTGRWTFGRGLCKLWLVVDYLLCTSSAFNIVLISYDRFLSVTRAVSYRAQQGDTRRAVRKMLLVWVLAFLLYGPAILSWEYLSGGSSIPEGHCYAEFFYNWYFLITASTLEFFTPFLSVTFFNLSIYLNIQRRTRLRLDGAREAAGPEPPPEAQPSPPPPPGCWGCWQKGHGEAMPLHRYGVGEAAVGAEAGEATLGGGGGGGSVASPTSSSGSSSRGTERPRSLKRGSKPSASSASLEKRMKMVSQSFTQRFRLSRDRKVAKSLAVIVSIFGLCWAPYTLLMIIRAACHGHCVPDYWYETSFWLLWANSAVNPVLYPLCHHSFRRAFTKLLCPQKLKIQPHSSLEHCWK

As for `CC(C)C(=O)OC[C@H]1O[C@@H](n2ccc(NO)nc2=O)[C@H](O)[C@@H]1O` [molnupiravir], the activation at 100 µM on 348 GPCRs [1] (setting [13]) is -0.625%; at 348 GPCRs [3] (setting [15]), -1.57%; on 348 GPCRs [8] (setting [19]), 0.0207%; on 348 GPCRs [9] (setting [20]), -1.09%; on 348 GPCRs [10] (setting [21]), -0.295%; at 348 GPCRs [11] (setting [22]), -0.0472%. On 348 GPCRs [12] (setting [23]), the activation at 100 µM is -0.797%. Also, the activation at 10 µM at 348 GPCRs [2] (setting [14]) was -0.0262%; at 348 GPCRs [5] (setting [16]) it was -1.59%; at 348 GPCRs [6] (setting [17]), -0.396%; on 348 GPCRs [7] (setting [18]), -0.856%. The “% GPCR activation compared to TPA” value on 348 GPCRs [4] is -1.952%.
Take `CC(C)OC(=O)[C@H](C)N[P@](=O)(OC[C@H]1O[C@@H](n2ccc(=O)[nH]c2=O)[C@](C)(F)[C@@H]1O)Oc1ccccc1` [sofosbuvir]: the activation at 100 µM is -1.41% at 348 GPCRs [1] (setting [24]); -0.925% on 348 GPCRs [3] (setting [26]); -1.16% on 348 GPCRs [8] (setting [30]); -0.32% at 348 GPCRs [9] (setting [31]); -2.02% on 348 GPCRs [10] (setting [32]); -0.334% on 348 GPCRs [11] (setting [33]). The activation at 100 µM at 348 GPCRs [12] (setting [34]) was 1.92%. The activation at 10 µM was -2.52% on 348 GPCRs [2] (setting [25]), -1.94% on 348 GPCRs [5] (setting [27]), -0.929% at 348 GPCRs [6] (setting [28]) and -0.631% at 348 GPCRs [7] (setting [29]). Moreover, the “% GPCR activation compared to TPA” value on 348 GPCRs [4] was -2.149%.
For the compound `N#C[C@@]1(c2ccc3c(N)ncnn23)O[C@H](CO)[C@@H](O)[C@H]1O` [GS441524], the activation at 100 µM at 348 GPCRs [1] (setting [13]) is 1.1%; at 348 GPCRs [3] (setting [15]), -0.309%; at 348 GPCRs [8] (setting [19]) it was 4.08%; on 348 GPCRs [9] (setting [20]), -7.84%; at 348 GPCRs [10] (setting [21]) it was 0.59%; on 348 GPCRs [11] (setting [22]), 4.14%. Besides, on 348 GPCRs [12] (setting [23]), the activation at 100 µM was determined as 0.261%. The activation at 10 µM on 348 GPCRs [2] (setting [14]) is -0.746%; on 348 GPCRs [5] (setting [16]), -0.811%; at 348 GPCRs [6] (setting [17]) it was -3.94%; on 348 GPCRs [7] (setting [18]), 0.618%. Further, the “% GPCR activation compared to TPA” value on 348 GPCRs [4] is 1.631%.
As to `NC(=O)c1nc(F)cnc1O` [favipiravir, 6-fluoro-3-hydroxy-2-pyrazinecarboxamide], the activation at 100 µM at 348 GPCRs [1] (setting [13]) was 0.723%; on 348 GPCRs [3] (setting [15]) it was -0.646%; at 348 GPCRs [6] (GPCR GPR61 (G protein-coupled receptor 61), 100μM, read-out: % GPCR activation compared to TPA), -3.47%; at 348 GPCRs [7] (GPCR M1 (Muscarinic acetylcholine receptor M1), 100μM, read-out: % GPCR activation compared to TPA), 0.788%; on 348 GPCRs [8] (setting [19]) it was 7.52%; on 348 GPCRs [9] (setting [20]), -4.07%. Moreover, the activation at 100 µM amounted to 0.315% at 348 GPCRs [10] (setting [21]), 4.37% on 348 GPCRs [11] (setting [22]) and 0.315% on 348 GPCRs [12] (setting [23]). Moreover, the activation at 10 µM was 0.18% at 348 GPCRs [2] (setting [14]) and -0.777% on 348 GPCRs [5] (setting [16]). Further, on 348 GPCRs [4], the “% GPCR activation compared to TPA” value is on record as 2.3424%.
Consider `CCC(CC)COC(=O)[C@H](C)N[P@](=O)(OC[C@H]1O[C@@](C#N)(c2ccc3c(N)ncnn23)[C@H](O)[C@@H]1O)Oc1ccccc1` [remdesivir], for which the activation at 100 µM was 1.8% on 348 GPCRs [1] (setting [24]); -1.45% on 348 GPCRs [3] (setting [26]); 7.67% at 348 GPCRs [8] (setting [30]); -3.19% on 348 GPCRs [9] (setting [31]); 0.0878% at 348 GPCRs [10] (setting [32]); 6.53% at 348 GPCRs [11] (setting [33]). Further, the activation at 100 µM at 348 GPCRs [12] (setting [34]) came out at 0.234%. The activation at 10 µM at 348 GPCRs [2] (setting [25]) was 0.248%; at 348 GPCRs [5] (setting [27]), -0.179%; on 348 GPCRs [6] (setting [28]), -3.23%; at 348 GPCRs [7] (setting [29]), 3.01%. Further, the “% GPCR activation compared to TPA” value on 348 GPCRs [4] is recorded as 3.955%.
